Measurements published in patent US20250333383A1, “N-OXIDE COMPOUNDS AND USE THEREOF” (SK BIOPHARMACEUTICALS CO., LTD., priority 2022, published 2025).

The molecules below were run against T1, human Nav1.7 channels (Homo sapiens, UniProt Q15858) (assay: hNav1.7 channel assay, whole cell patch clamp, two-pulse protocol). Settings: TP2 (inactivated phase inhibition), HEK293 cells stably expressing human Nav1.7, read-out: Inhibition activity: percent inhibition on the inactivated state of hNav1.7.
T1 construct: host or cells: HEK293
Assay type: cell-based
Text: Whole cell patch clamp technique was used to investigate the inhibitory effects of the compound of Examples on human Nav1.7 channels, stably expressed in HEK293 cells. Human Nav1.7 recombinant cell line (CYL3011-precisION) was purchased from Eurofins.
Two-pulse protocol was used every 10 seconds to assess the state-dependent inhibition by Examples. From the holding potential of −90 mV, pre-pulse (200 ms at −120 mV) was followed by test pulse1 ([…]), then test pulse2 (TP2: 20 ms at 0 mV) was evoked after inter-pulse (20 ms at −100 mV).
Peak current amplitudes were measured for test pulses TP1 (resting phase inhibition) and TP2 (inactivated phase inhibition). The following solutions were used for screening assay: External (mM): 145 NaCl, 1 MgCl2, 1.8 CaCl2, 10 Hepes, 5 Glucose, pH 7.4, 300 mOsm; Internal (mM): 120 CsF, 10 NaCl, 10 EGTA, 10 HEPES, pH 7.2, 290 mOsm.
The inhibition on the inactivated state of hNav1.7 was calculated as: % inhibition (inactivation state)=(1−(ITP2, TA/ITP2, Control)×100%, where ITP2 (the inward peak Na+ currents), Control and ITP2, TA were elicited by the TP2 in control (vehicle only) and in the presence of a test article (TA) indicating Examples, respectively.

T1 sequence (Q15858 whole entry): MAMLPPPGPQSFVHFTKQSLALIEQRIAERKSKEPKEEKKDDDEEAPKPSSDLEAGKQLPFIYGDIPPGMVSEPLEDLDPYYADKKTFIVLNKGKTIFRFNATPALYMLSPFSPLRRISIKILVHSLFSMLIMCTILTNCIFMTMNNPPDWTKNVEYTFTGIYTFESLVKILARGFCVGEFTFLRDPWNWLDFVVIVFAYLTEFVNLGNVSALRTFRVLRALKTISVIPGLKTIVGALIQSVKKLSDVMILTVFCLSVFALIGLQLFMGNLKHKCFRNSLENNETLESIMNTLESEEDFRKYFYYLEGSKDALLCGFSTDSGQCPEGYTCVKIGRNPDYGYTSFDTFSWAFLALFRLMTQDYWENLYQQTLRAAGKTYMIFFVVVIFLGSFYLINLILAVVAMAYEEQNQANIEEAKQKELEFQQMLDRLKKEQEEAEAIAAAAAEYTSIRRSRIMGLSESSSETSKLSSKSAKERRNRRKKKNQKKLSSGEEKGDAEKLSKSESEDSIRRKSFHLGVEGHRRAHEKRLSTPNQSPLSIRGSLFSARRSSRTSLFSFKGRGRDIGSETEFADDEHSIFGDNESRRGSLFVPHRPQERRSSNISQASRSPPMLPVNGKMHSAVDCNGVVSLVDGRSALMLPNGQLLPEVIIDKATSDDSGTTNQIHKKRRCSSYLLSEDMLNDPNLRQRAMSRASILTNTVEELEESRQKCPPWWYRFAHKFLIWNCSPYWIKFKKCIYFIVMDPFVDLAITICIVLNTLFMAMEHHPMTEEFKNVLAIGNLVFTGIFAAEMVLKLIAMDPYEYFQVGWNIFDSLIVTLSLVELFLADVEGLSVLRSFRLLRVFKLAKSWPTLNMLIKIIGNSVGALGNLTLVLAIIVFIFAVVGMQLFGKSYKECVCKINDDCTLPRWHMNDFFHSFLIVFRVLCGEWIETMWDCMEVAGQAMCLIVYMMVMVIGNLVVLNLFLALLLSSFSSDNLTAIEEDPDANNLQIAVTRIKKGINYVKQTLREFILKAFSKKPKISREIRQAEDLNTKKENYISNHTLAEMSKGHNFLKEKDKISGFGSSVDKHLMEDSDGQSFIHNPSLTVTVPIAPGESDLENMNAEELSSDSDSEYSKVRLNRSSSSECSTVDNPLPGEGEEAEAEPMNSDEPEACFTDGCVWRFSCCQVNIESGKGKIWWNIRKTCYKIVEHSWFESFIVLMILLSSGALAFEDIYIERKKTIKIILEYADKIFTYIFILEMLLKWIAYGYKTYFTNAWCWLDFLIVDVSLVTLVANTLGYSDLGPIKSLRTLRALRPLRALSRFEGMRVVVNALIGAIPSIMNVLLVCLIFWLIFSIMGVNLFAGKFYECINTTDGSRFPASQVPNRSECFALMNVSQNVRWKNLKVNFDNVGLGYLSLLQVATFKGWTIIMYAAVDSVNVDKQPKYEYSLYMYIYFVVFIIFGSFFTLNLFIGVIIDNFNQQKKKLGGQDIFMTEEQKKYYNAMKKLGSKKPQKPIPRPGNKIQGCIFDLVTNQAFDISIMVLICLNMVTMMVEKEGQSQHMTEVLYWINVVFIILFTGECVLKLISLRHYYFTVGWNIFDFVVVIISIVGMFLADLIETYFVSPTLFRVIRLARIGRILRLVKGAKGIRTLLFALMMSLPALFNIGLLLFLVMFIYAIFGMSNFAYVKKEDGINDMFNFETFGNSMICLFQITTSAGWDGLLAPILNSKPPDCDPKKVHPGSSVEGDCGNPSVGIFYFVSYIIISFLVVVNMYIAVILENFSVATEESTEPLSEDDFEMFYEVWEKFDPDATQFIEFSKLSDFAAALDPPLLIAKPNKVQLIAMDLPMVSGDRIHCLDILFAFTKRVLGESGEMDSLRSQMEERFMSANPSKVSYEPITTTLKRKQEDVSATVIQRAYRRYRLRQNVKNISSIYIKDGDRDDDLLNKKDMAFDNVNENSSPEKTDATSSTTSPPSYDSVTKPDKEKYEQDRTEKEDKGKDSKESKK

Q: With `O=C(NCc1cccc[n+]1[O-])c1cccc(-c2ccccc2Cl)c1` [Example 20, 3-(2-chlorophenyl)-N-[(1-oxidopyridin-1-ium-2-yl)methyl]benzamide] as the molecule, how does the inhibition at 10 µM read?
A: 40 to 70%

Q: `O=C(NCc1cccc[n+]1[O-])c1cccc(-c2cc(F)cc(Cl)c2)c1` [Example 29, 3-(3-chloro-5-fluoro-phenyl)-N-[(1-oxidopyridin-1-ium-2-yl)methyl]benzamide] was tested. Which inhibition at 10 µM did it give?
A: 70 to 100%

Q: For `CC(C)(C)c1ccc(-c2cccc(C(=O)NCc3cccc[n+]3[O-])c2)cc1` [Example 13, 3-(4-tert-butylphenyl)-N-[(1-oxidopyridin-1-ium-2-yl)methyl]benzamide], which inhibition at 10 µM is on record?
A: 40 to 70%

Q: For `O=C(NCc1cccc[n+]1[O-])c1cccc(-c2ccc(F)c(C(F)(F)F)c2)c1` [Example 39, 3-[4-fluoro-3-(trifluoromethyl)phenyl]-N-[(1-oxidopyridin-1-ium-2-yl)methyl]benzamide], which inhibition at 10 µM is on record?
A: 70 to 100%

Q: How did the inhibition at 10 µM turn out when `COc1cc(-c2ccc(F)c(C(=O)NCc3cccc[n+]3[O-])c2)ccc1C(F)(F)F` [Example 59, 2-fluoro-5-[3-methoxy-4-(trifluoromethyl)phenyl]-N-[(1-oxidopyridin-1-ium-2-yl)methyl]benzamide] was run?
A: 70 to 100%

Q: How did the inhibition at 10 µM turn out when `O=C(NCc1cccc[n+]1[O-])c1cccc(-c2ccc(C(F)(F)F)cc2)c1` [Example 1, N-[(1-oxidopyridin-1-ium-2-yl)methyl]-3-[4-(trifluoromethyl)phenyl]benzamide] was run?
A: 70 to 100%

Q: `O=C(NCc1cccc[n+]1[O-])c1cccc(-c2cc(F)cc(F)c2)c1` [Example 32, 3-(3,5-difluorophenyl)-N-[(1-oxidopyridin-1-ium-2-yl)methyl]benzamide] was tested. Which inhibition at 10 µM did it give?
A: 70 to 100%

Q: `O=C(NCc1cccc[n+]1[O-])c1cccc(-c2ccc(F)c(Cl)c2)c1` [Example 17, 3-(3-chloro-4-fluoro-phenyl)-N-[(1-oxidopyridin-1-ium-2-yl)methyl]benzamide] was tested. Which inhibition at 10 µM did it give?
A: 40 to 70%

Q: `CC(C)c1cccc(-c2cccc(C(=O)NCc3cccc[n+]3[O-])c2)c1` [Example 35, 3-(3-isopropylphenyl)-N-[(1-oxidopyridin-1-ium-2-yl)methyl]benzamide] was tested. Which inhibition at 10 µM did it give?
A: 70 to 100%

Q: How did the inhibition at 10 µM turn out when `O=C(NCc1cccc[n+]1[O-])c1cccc(-c2ccc(C(F)(F)F)c(F)c2)c1` [Example 42, 3-[3-fluoro-4-(trifluoromethyl)phenyl]-N-[(1-oxidopyridin-1-ium-2-yl)methyl]benzamide] was run?
A: 40 to 70%

Q: With `O=C(NCc1cccc[n+]1[O-])c1cccc(-c2ccc(Cl)c(F)c2)c1` [Example 30, 3-(4-chloro-3-fluoro-phenyl)-N-[(1-oxidopyridin-1-ium-2-yl)methyl]benzamide] as the molecule, how does the inhibition at 10 µM read?
A: 40 to 70%

Q: How did the inhibition at 10 µM turn out when `O=C(NCc1cccc[n+]1[O-])c1cccc(-c2ccccc2)c1` [Example 12, N-[(1-oxidopyridin-1-ium-2-yl)methyl]-3-phenyl-benzamide] was run?
A: 40 to 70%

Q: With `CC(C)c1ccc(-c2cccc(C(=O)NCc3cccc[n+]3[O-])c2)cc1` [Example 24, 3-(4-isopropylphenyl)-N-[(1-oxidopyridin-1-ium-2-yl)methyl]benzamide] as the molecule, how does the inhibition at 10 µM read?
A: 10 to 40%

Q: With `O=C(NCc1cccc[n+]1[O-])c1cccc(-c2cccc(Cl)c2)c1` [Example 4, 3-(3-chlorophenyl)-N-[(1-oxidopyridin-1-ium-2-yl)methyl]benzamide] as the molecule, how does the inhibition at 10 µM read?
A: 40 to 70%

Q: `O=C(NCc1cccc[n+]1[O-])c1cc(-c2cccc(Cl)c2)ccc1F` [Example 52, 5-(3-chlorophenyl)-2-fluoro-N-[(1-oxidopyridin-1-ium-2-yl)methyl]benzamide] was tested. Which inhibition at 10 µM did it give?
A: 70 to 100%

Q: Which inhibition at 10 µM does the source give for `O=C(NCc1cccc[n+]1[O-])c1cccc(-c2ccc(C3CC3)cc2)c1` [Example 36, 3-(4-cyclopropylphenyl)-N-[(1-oxidopyridin-1-ium-2-yl)methyl]benzamide] here?
A: 40 to 70%

Q: For `COc1cc(Cl)ccc1-c1cccc(C(=O)NCc2cccc[n+]2[O-])c1` [Example 26, 3-(4-chloro-2-methoxy-phenyl)-N-[(1-oxidopyridin-1-ium-2-yl)methyl]benzamide], which inhibition at 10 µM is on record?
A: 10 to 40%

Q: With `Cc1cc(-c2cccc(C(=O)NCc3cccc[n+]3[O-])c2)ccc1Cl` [Example 28, 3-(4-chloro-3-methyl-phenyl)-N-[(1-oxidopyridin-1-ium-2-yl)methyl]benzamide] as the molecule, how does the inhibition at 10 µM read?
A: 70 to 100%

Q: How did the inhibition at 10 µM turn out when `COc1cc(Cl)ccc1-c1ccc(F)c(C(=O)NCc2cccc[n+]2[O-])c1` [Example 53, 5-(4-chloro-2-methoxy-phenyl)-2-fluoro-N-[(1-oxidopyridin-1-ium-2-yl)methyl]benzamide] was run?
A: 70 to 100%

Q: How did the inhibition at 10 µM turn out when `COc1cc(-c2cccc(C(=O)NCc3cccc[n+]3[O-])c2)ccc1Cl` [Example 48, 3-(4-chloro-3-methoxy-phenyl)-N-[(1-oxidopyridin-1-ium-2-yl)methyl]benzamide] was run?
A: 40 to 70%

Q: How did the inhibition at 10 µM turn out when `O=C(NCc1cccc[n+]1[O-])c1cc(-c2ccc(F)c(F)c2)ccc1F` [Example 54, 5-(3,4-difluorophenyl)-2-fluoro-N-[(1-oxidopyridin-1-ium-2-yl)methyl]benzamide] was run?
A: 70 to 100%

Q: For `O=C(NCc1cccc[n+]1[O-])c1cc(-c2ccc(Cl)cc2C(F)(F)F)ccc1F` [Example 55, 5-[4-chloro-2-(trifluoromethyl)phenyl]-2-fluoro-N-[(1-oxidopyridin-1-ium-2-yl)methyl]benzamide], which inhibition at 10 µM is on record?
A: 40 to 70%

Q: `COc1ccc(-c2cccc(C(=O)NCc3cccc[n+]3[O-])c2)c(C(F)(F)F)c1` [Example 50, 3-[4-methoxy-2-(trifluoromethyl)phenyl]-N-[(1-oxidopyridin-1-ium-2-yl)methyl]benzamide] was tested. Which inhibition at 10 µM did it give?
A: 40 to 70%

Q: For `O=C(NCc1cccc[n+]1[O-])c1cccc(-c2cccc(C(F)(F)F)c2)c1` [Example 5, N-[(1-oxidopyridin-1-ium-2-yl)methyl]-3-[3-(trifluoromethyl)phenyl]benzamide], which inhibition at 10 µM is on record?
A: 40 to 70%

Q: `O=C(NCc1cccc[n+]1[O-])c1cccc(-c2cc(Cl)cc(Cl)c2)c1` [Example 7, 3-(3,5-dichlorophenyl)-N-[(1-oxidopyridin-1-ium-2-yl)methyl]benzamide] was tested. Which inhibition at 10 µM did it give?
A: 40 to 70%

Q: How did the inhibition at 10 µM turn out when `Cc1cc(C(F)(F)F)ccc1-c1cccc(C(=O)NCc2cccc[n+]2[O-])c1` [Example 38, 3-[2-methyl-4-(trifluoromethyl)phenyl]-N-[(1-oxidopyridin-1-ium-2-yl)methyl]benzamide] was run?
A: 40 to 70%

Q: With `COc1cc(F)c(F)cc1-c1cccc(C(=O)NCc2cccc[n+]2[O-])c1` [Example 47, 3-(4,5-difluoro-2-methoxy-phenyl)-N-[(1-oxidopyridin-1-ium-2-yl)methyl]benzamide] as the molecule, how does the inhibition at 10 µM read?
A: 10 to 40%

Q: Which inhibition at 10 µM does the source give for `O=C(NCc1cccc[n+]1[O-])c1cc(-c2ccc(Cl)cc2)ccc1Cl` [Example 62, 2-chloro-5-(4-chlorophenyl)-N-[(1-oxidopyridin-1-ium-2-yl)methyl]benzamide] here?
A: 70 to 100%

Q: `COc1cc(OC(F)(F)F)ccc1-c1ccc(F)c(C(=O)NCc2cccc[n+]2[O-])c1` [Example 56, 2-fluoro-5-[2-methoxy-4-(trifluoromethoxy)phenyl]-N-[(1-oxidopyridin-1-ium-2-yl)methyl]benzamide] was tested. Which inhibition at 10 µM did it give?
A: 70 to 100%

Q: Which inhibition at 10 µM does the source give for `O=C(NCc1ccc(F)c[n+]1[O-])c1cccc(-c2ccc(Cl)cc2)c1` [Example 61, 3-(4-chlorophenyl)-N-[(5-fluoro-1-oxido-pyridin-1-ium-2-yl)methyl]benzamide] here?
A: 70 to 100%

Q: Which inhibition at 10 µM does the source give for `COc1ccccc1-c1cccc(C(=O)NCc2cccc[n+]2[O-])c1` [Example 40, 3-(2-methoxyphenyl)-N-[(1-oxidopyridin-1-ium-2-yl)methyl]benzamide] here?
A: 70 to 100%

Q: `O=C(NCc1cccc[n+]1[O-])c1cccc(-c2ccc(F)cc2F)c1` [Example 31, 3-(2,4-difluorophenyl)-N-[(1-oxidopyridin-1-ium-2-yl)methyl]benzamide] was tested. Which inhibition at 10 µM did it give?
A: 40 to 70%

Q: For `O=C(NCc1cccc[n+]1[O-])c1cccc(-c2cc(Cl)ccc2Cl)c1` [Example 10, 3-(2,5-dichlorophenyl)-N-[(1-oxidopyridin-1-ium-2-yl)methyl]benzamide], which inhibition at 10 µM is on record?
A: 40 to 70%

Q: Which inhibition at 10 µM does the source give for `O=C(NCc1cccc[n+]1[O-])c1cccc(-c2ccccc2F)c1` [Example 25, 3-(2-fluorophenyl)-N-[(1-oxidopyridin-1-ium-2-yl)methyl]benzamide] here?
A: 70 to 100%

Q: How did the inhibition at 10 µM turn out when `O=C(NCc1cccc[n+]1[O-])c1cccc(-c2ccc(Cl)c(Cl)c2)c1` [Example 6, 3-(3,4-dichlorophenyl)-N-[(1-oxidopyridin-1-ium-2-yl)methyl]benzamide] was run?
A: 70 to 100%

Q: For `Cc1cc(Cl)ccc1-c1cccc(C(=O)NCc2cccc[n+]2[O-])c1` [Example 15, 3-(4-chloro-2-methyl-phenyl)-N-[(1-oxidopyridin-1-ium-2-yl)methyl]benzamide], which inhibition at 10 µM is on record?
A: 40 to 70%

Q: Which inhibition at 10 µM does the source give for `Cc1cc(-c2cccc(C(=O)NCc3cccc[n+]3[O-])c2)ccc1C(F)(F)F` [Example 43, 3-[3-methyl-4-(trifluoromethyl)phenyl]-N-[(1-oxidopyridin-1-ium-2-yl)methyl]benzamide] here?
A: 70 to 100%

Q: How did the inhibition at 10 µM turn out when `O=C(NCc1cccc[n+]1[O-])c1cc(-c2ccc(C(F)(F)F)cc2)ccc1F` [Example 57, 2-fluoro-N-[(1-oxidopyridin-1-ium-2-yl)methyl]-5-[4-(trifluoromethyl)phenyl]benzamide] was run?
A: 70 to 100%
